Results from patent publication US10925858B2, “S-nitrosoglutathione (GSNO) and GSNO reductase inhibitors for use in therapy” (MUSC FOUNDATION FOR RESEARCH DEVELOPMENT, priority 2017, dated 2021).

Assays:
EAE mice = test: Active EAE (MOG35-55), clinical score; format: in vivo, C57BL/6 mice
Procedure: Female C57BL/6 mice of 8-12 weeks of age, purchased from Jackson Laboratory, were provided with food and water ad libitum and were kept in pathogen free animal care facility of Medical University of South Carolina (MUSC) throughout the study. […] EAE was induced as described previously (Nath et al., 2009). Briefly, mice were immunized subcutaneously in the flank regions with MOG35-55 peptide (MOG; 200 μg; Peptide International) emulsified (1:1) in 100 ul complete Freund's adjuvant (CFA) on day 0 and day 7. Additionally, 300 ng of Pertussis toxin (Sigma-Aldrich, St. Louis, Mo.) was given on day 0 and day 2 by i.p. injection. Pertussis toxin used as per the standardized protocol reported by us and other investigators for the induction of EAE (Nath et al., 2009). Similarly, healthy control group received subcutaneous injection of PBS and CFA emulsion on day 0 and day 7. Clinical signs of EAE were scored by examiners blinded to experimental treatments using the following scale: 0=no clinical signs of disease; 1=piloerection and sluggish; 2=limp tail (ataxia); 2.5=ataxia with partial hind limb paralysis; 3=full paralysis of hind limb; 3.5=full paralysis of hind limb with paralysis of one fore limb; 4=full paralysis of two limbs; 4.5=moribund stage; 5=death. […] The drug treatments were continued till the termination of the study (day 41 post immunization). EAE animals without drug treatment received PBS. Likewise, healthy controls received vehicle.
Clinical disease scores as average maximal scores over the treatment period (mean±SD) and analyzed using Kruskal-Wallis test. […] Significances (p value) between groups were determined using the Newman-Keul test. A value of p<0.05* and above was considered significant.

lymphocytes in blood = test: Total lymphocyte count in blood of normal mice (lymphopenic effect); format: in vivo, C57BL/6 mice; details: normal mice without EAE, 1 mg/kg/day for 19 days
Procedure: The bloods collected in EDTA blood collection tubes (BD Biosciences) were analyzed by an automated hematology analyzer for counting total lymphocytes. For counting of each subset of lymphocytes, 50 μl of blood was mixed with staining buffer (20 μl) containing fluorescence labelled antibodies and red-blood-cells were lysed with FACS lysing solution (BD Biosciences) prior to fluorescence flow-cytometric analysis. For staining of CD3+, CD4+, and CD8+ cells, allophycocvanin (APC)-labeled anti-mouse CD3 (eBioscience clone 17A2), Fluorescein isothiocyanate (FITC)-labeled anti-mouse CD4 (eBioscience clone RM4-5), APC-labeled anti-mouse CD8 (eBioscience clone 53-6.7) and appropriate isotype matched controls.

RhoA = RhoA activity assay in thrombin treated hBMVECs; format: cell-based, human; details: thrombin 0.1 unit/ml 5 min; L-NIO or FeTPPS 10 μM pretreated 30 min; GSNO or SIN-1 various concentrations pretreated 2 hr
Procedure: (§1) Cell culture: Primary human brain microvascular endothelial cells (hBMVECs) were purchased from Angio-Proteomie (Cat #: cAP-0002, Atlanta, Ga.). The cells were cultured in cell culture flasks or plates precoated with Quick Coating Solution (Angio-Proteomie; Cat #: cAP-01) and maintained in Endothelial Growth Medium (Angio-Proteomie; Cat #: cAP-02) at 37° C. under 5% CO2/95% air. When the cells were almost confluent, the medium was replaced with endothelial basal medium (Angio-Proteomie; Cat #: cAP-03) containing 0.5% fetal bovine serum (FBS; Life Technologies, Grand Island, N.Y.) about 8-12 hours before the experiment. No institutional approval was required for this study. The study was not pre-registered.
RhoA activity in hBMVECs was analyzed by RhoA Activation Assay Kit (Abeam Cat #: ab211164, Cambridge, Mass.). Briefly, following drug treatments, the cells were lysed with 1× Assay buffer provided in the kit. Lysates were centrifuged (14,000×g for 10 sec), and supernatants were incubated with agarose beads coupled to GST-Rhotekin-Rho binding domain (RBD) for 2 h at 4° C. Beads were then washed with 1× Assay buffer and GTP-bound RhoA was eluted with 2×SDS-PAGE sample buffer. Amounts of active (GTP-bound) RhoA were determined by Western blot analysis using antibody specific to RhoA (Abeam).

[1] = system: intracellular Ca^2+ ([Ca^2+]i) influx; test: Assay for intracellular Ca2+ influx in thrombin treated hBMVECs; format: cell-based, human; details: thrombin 0.1 unit/ml; L-NIO or FeTPPS 10 μM; GSNO or SIN-1 various concentrations
Procedure: as §1, with “pre-registered. Intracellular Ca^2+ concentration ([Ca^2+]i) was measured with Fluo-4 Direct Calcium Assay Kit (Thermo Fisher Scientific, Cat #: F10471, Grand Island, N.Y.). Briefly, culture medium in the 96-well plate was replaced with a Ca^2+ sensitive dye Fluo-4 in an endothelial basal medium. After 30 min incubation, the dye was removed and cells were incubated with the original medium with or without the drugs at 37° C. for 15 min. Following thrombin treatment, time course changes of fluorescent intensity were quantified using a CLARIOstar multi-well fluorometer (BMG Labtech, Cary, N.C.).” for “pre-registered.”

myosin light chain (MLC) = test: Western analysis of MLC phosphorylation (Ser19) in thrombin treated hBMVECs; format: cell-based, human; details: thrombin 0.1 unit/ml 5 min; L-NIO or FeTPPS 10 μM; GSNO or SIN-1 various concentrations
Procedure: as §1
Western immunoblot analysis was performed by standard method using 50 μg of cell lysates. Following the SDS-PAGE electrophoresis, proteins were transferred from the gel onto the Polyvinylidene fluoride membrane (GE Healthcare Life Sciences, Marlborough, Mass.). Membranes were blocked with non-fat dry milk (Santa Cruz Biotechnology) or I-Block™ (ThermoFisher Scientific, Waltham, Mass.) for detection of phospho-proteins and incubated with primary antibodies, such as MBP (Santa Cruz Biotech Cat #: sc13914; RRID: AB_648798), phospho-(Ser^19) MLC (Abeam, Cat #: ab2480; RRID: AB_303094), MLC (Abeam, Cat #: ab79935; RRID:AB_1952220), P-actin (Santa Cruz Biotechnology, Cat #: sc-47778; RRID:AB_2714189), phospho-eNOS (Ser^1177) (Cell Signaling, Cat #: 9571; RRID: AB_329837, Danvers, Mass.), eNOS (Cell Signaling, Cat #: 32027), RhoA (Santa Cruz Biotechnology; Cat #: sc418; RRID: AB_628218) or 3-nitrotyrosine (Abeam, Cat #: ab61392; RRID: AB_942087). Following washing, the membranes were incubated with horseradish peroxidase conjugated secondary antibody (Jackson Immunoresearch Lab, West Grove, Pa.), washed and then incubated with ECL reagent (Amersham Life Science, Pittsbrugh, Pa.), and exposed to Amersham Hyperfilm ECL film

[2] = system: protein-associated 3-nitrotyrosine; test: Assay for protein-associated nitrotyrosine in hBMVECs; format: cell-based, human
Procedure: as §1
Cellular levels of protein-associated 3-nitrotyrosine were analyzed by ELISA Kit (Abeam, Cat #: ab116691) and Western blot analysis using antibody specific to 3-nitrotyrosine (Abeam, Cat #: ab61392). For the ELISA, hBMVECs were lysed in extraction buffer provided with the kit followed by centrifugation at 16,000×g 4° C. The cell lysate supernatants were subjected to protein quantification with Bio-Rad DC protein assay kit (Bio-Rad, Hercules, Calif.) and the equal amounts of proteins (500 μg) were loaded onto 96 well microplate coated with 3-nitrotyrosine capture antibody and followed by incubation with biotin-conjugated 3-nitrotyrosine detector antibody. Following washing, the plates were incubated with HRP-conjugated streptoavidin and the levels of 3-nitrotyrosine were measured by incubation with 3,3′,5,5′-tetramethylbenzidine solution and colorimetric analysis at […] using SpectraMax 190 Microplate Reader (Molecular Devices, Sunnyvale, Calif.). For analysis of degree of RhoA tyrosine nitration, the cell lysates were immunoprecipiated with antibody specific to 3-nitrotyrosine (Abeam) and the levels of tyrosine nitrated RhoA were analyzed by Western analysis for RhoA.

hBMVECs [3] = test: Assay for F-actin stress fiber development in thrombin treated hBMVECs; format: cell-based, human; details: thrombin 0.1 unit/ml 30 min; GSNO 100 μM or SIN-1 100 μM pretreated 2 hr
Procedure: as §1
Assay for F-actin stress fiber development and endothelial cell contraction: hBMVECs were cultured on fibronectin-coated chamber slides (BD Bioscience). Following drug treatments, the cells were fixed with 4% (wt/vol) paraformaldehyde, permeabilized by the addition of 0.25% Triton X-100, and blocked by 2% bovine serum albumin (BSA) in phosphate buffered saline (PBS). […] The density of fluorescence was analyzed by ImageJ (NIH, Bethesda, Md.).

hBMVECs [4] = test: Assay of trans-endothelial electrical resistance (TEER) in thrombin treated hBMVECs; format: cell-based, human; details: thrombin 0.1 unit/ml; GSNO 100 μM or SIN-1 500 μM pretreated 2 hr
Procedure: as §1, with “pre-registered. For evaluation of the endothelial barrier function, hBMVECs were plated on fibronectin-coated polycarbonate filters (Transwell system, Corning, Midland, N.C.) containing Endothelial Growth Medium (Angio-Proteomie Cat #: cAP-02). The medium was renewed every other day. Five days after seeding, the medium was replaced with Endothelial Basal Medium (Angio-Proteomie Cat #: cAP-03) containing 0.5% FBS and incubated for 2 days. Following drug treatments, transendothelial electrical resistance (TEER) was measured by EVOM2 (Word Precision Instruments) as described previously (Li et al., 2006).” for “pre-registered.”

Row | Structure (SMILES) | clinical score at the peak of disease (EAE mice; day 21 post immunization, 1 mg/kg/day from disease onset (GSNO oral, N6022 i.p., FTY720 oral), untreated EAE 3.5±0.5) | clinical score at the remission of disease (EAE mice; day 41 post immunization, 1 mg/kg/day from disease onset (GSNO oral, N6022 i.p., FTY720 oral), untreated EAE 2.5±0.5) | efficacy on EAE disease compared at the same dose (EAE mice; single dose comparison of N6022, GSNO and FTY720, 1 mg/kg/day) | numbers of total lymphocytes, CD3+ T cells, CD4+ T cells and CD8+ cells in blood (lymphocytes in blood) | thrombin-induced RhoA activation (RhoA) | thrombin-induced intracellular Ca2+ influx [1] | thrombin-induced MLC phosphorylation (myosin light chain (MLC)) | RhoA tyrosine nitration ([2]; various concentrations, incubated 2 hr) | cellular levels of protein-associated 3-nitrotyrosine ([2]; various concentrations, incubated 2 hr, no thrombin) | thrombin-induced development of F-actin stress fiber formation (hBMVECs [3]) | thrombin-induced loss of TEER (hBMVECs [4]) | thrombin-induced 3-nitrotyrosine levels ([2]; thrombin 0.1 unit/ml 20 min, L-NIO or FeTPPS 10 μM pretreated 30 min, ELISA)
1 | CCCCCCCCc1ccc(CCC(N)(CO)CO)cc1 [FTY720] | 3.0±0.87 | 1.67±0.58 | less effective | significantly reduced | – | – | – | – | – | – | – | –
2 | Cl.N=c1c[n+](N2CCOCC2)[n-]o1 [SIN-1, 3-morpholinosydnonimine chloride] | – | – | – | – | enhanced | enhanced | enhanced | increased | increased | enhanced | enhanced | –
3 | CC(=N)NCCC[C@H](N)C(=O)O.Cl.Cl [L-NIO, N^5-(1-Iminoethyl)-L-omithine dihydrochloride] | – | – | – | – | decreased | had not effect | inhibited | – | – | – | – | attenuated
